According to patent US20080318943A1, “Compounds and Uses Thereof - 848” (ASTRAZENECA AB, priority 2007, published 2008):

Experiments:
GABAA receptor α1β2γ2 = target: T1, GABAA receptor α1β2γ2 (Homo sapiens, UniProt P14867+P18507); assay: Two-electrode voltage-clamp potentiation of GABA EC10 current in Xenopus oocytes, GABAA1; format: cell-based; conditions: percentage potentiation of GABA EC10 current divided by that of diazepam
T1 construct: expressed in transfected cells; host or cells: Xenopus laevis oocytes injected with cRNA
T1 sequence (P14867 28-456): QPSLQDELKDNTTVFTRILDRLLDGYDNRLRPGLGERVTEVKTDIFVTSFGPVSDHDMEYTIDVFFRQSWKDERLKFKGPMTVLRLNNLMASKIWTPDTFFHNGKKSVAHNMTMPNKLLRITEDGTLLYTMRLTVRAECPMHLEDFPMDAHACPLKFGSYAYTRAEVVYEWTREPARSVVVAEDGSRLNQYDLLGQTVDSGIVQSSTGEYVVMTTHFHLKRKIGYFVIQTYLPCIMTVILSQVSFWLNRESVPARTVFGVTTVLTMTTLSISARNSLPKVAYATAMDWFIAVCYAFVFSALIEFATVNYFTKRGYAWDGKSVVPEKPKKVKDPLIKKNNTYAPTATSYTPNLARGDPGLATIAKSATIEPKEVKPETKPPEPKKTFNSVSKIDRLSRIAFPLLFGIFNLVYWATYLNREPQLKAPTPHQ
T1 sequence (P47870 25-512 partner limits assumed): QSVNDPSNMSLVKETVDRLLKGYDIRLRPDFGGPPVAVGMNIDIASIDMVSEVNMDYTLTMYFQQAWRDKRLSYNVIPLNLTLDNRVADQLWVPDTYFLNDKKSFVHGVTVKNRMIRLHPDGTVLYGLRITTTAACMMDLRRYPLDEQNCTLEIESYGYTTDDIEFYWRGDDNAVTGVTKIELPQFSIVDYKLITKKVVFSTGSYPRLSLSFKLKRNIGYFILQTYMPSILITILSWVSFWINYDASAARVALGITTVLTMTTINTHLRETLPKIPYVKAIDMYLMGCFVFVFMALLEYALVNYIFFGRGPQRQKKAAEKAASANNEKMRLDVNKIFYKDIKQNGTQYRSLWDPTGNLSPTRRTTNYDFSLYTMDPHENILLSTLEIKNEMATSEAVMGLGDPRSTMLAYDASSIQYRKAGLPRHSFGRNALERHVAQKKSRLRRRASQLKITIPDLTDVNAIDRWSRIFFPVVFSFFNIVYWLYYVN
T1 sequence (P18507 40-475): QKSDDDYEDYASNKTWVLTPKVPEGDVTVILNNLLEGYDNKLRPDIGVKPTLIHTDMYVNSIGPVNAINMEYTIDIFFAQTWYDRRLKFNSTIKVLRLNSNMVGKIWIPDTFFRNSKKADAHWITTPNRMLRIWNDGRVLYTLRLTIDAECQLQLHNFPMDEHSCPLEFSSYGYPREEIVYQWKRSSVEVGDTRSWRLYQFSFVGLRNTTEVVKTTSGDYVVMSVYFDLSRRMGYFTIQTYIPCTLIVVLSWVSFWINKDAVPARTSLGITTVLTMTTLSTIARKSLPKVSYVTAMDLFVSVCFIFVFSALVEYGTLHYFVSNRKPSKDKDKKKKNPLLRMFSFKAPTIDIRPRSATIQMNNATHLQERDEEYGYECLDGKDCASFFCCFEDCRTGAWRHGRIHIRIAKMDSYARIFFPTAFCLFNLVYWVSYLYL
Procedure: GABAA receptors were heterologously expressed in Xenopus oocytes by injecting cRNA corresponding to human α1, α2, α3, α5, β2, P3 and γ2 subunits of the GABAA receptor genes. The specific subunit combinations (subtypes) were as follows: α1β2γ2, α2β3γ2, α3β3γ2, and α5β3γ2. The EC10 of GABA is approximated for each cell. Stability of GABA-mediated (EC10) current is established. Modulatory effect of test compound is determined and compared across subtypes. […] Thus, the assay can characterize modulatory effects and determine subtype selectivity of test compounds on major subtypes of GABAA receptors.
Xenopus laevis frogs (Xenopus I, Kalamazoo, Mich.) were anesthetized using 0.15% tricaine. Surgically removed ovarian lobes were teased out in OR2 solution (82 NaCl, 2.5 KCl, 5 HEPES, 1.5 NaH2PO4, 1 MgCl2, 0.1 EDTA, in mM, pH 7.4). The oocytes were defolliculated by incubation in 25 mL OR2 containing 0.2% collagenase 1A (SIGMA) two times for about 60 minutes on a platform shaker and stored in Leibovitz's L-15 medium. Oocytes were injected the following day in 0.5× Leibovitz's L-15 medium containing […] gentamycin, 10 units/ml penicillin, and […] streptomycin.
Capped cRNAs from the linearized vectors containing human α1, β2 and γ2 subunits of the GABAA receptor genes were mixed in ratio of […]. Oocytes were injected with 25-50 nL of mixed RNA with an appx molar ratio for α1, β2, and γ2 as 1:1:10. Oocyte recordings were done 2-10 days after injection. The same methods apply to subtypes derived from α2β3γ2, α3β3γ2, and α5β3γ2, except for 1:1:1 ratio was used for α, β, and γ subunits.
All measurements were done in a medium containing ND-96 (96 NaCl, 2 KCl, 1.8 CaCl2.2H2O, 1 MgCl2.6H2O, 5 HEPES, in mM, pH 7.5). Two-electrode voltage-clamp recording was carried out using OpusXpress amplifier (Axon Instruments, Foster City, Calif.), which allows simultaneous recording from 8 oocytes. Oocytes were impaled with two electrodes of 1-2 MΩ tip resistance when filled with 3M KCl. Recordings were begun when membrane potential became stable at potentials negative to −50-−60 mV. Membrane potential was held at −60 mV. […] The concentration of GABA corresponded to the EC10 value calculated for each oocyte. The modulator pulses started 30 s before the GABA pulse so as to allow preincubation with the modulator. A set of 3 pulses with just GABA without modulator was given prior to the modulator-containing pulses to define the baseline GABA response. Two oocytes per each experiment were dedicated to observe the effect of diazepam on GABA response to ensure the presence of γ2 subunit in the GABAA pentameric complex, which imparts diazepam sensitivity to the complex.
Current amplitude (i) was measured from baseline to peak using Clampfit (Axon Inst., Foster City, Calif.). Potentiation was calculated as percent change from the baseline GABA current flux 100×(imod/icontrol)−1) where imod=current mediated by modulator+GABA and icontrol=current mediated by GABA alone. […] Similarly, a value of −50% potentiation means the presence of modulator caused a 50% decrease in the control current. Various other data shown here were fitted and plotted using GraphPad Prism (GraphPad Software, Inc. San Diego, Calif.). The percentage potentiation was converted to relative potentiation by dividing it with percentage potentiation value obtained from the same assay with diazepam as a control.

[1] = target: T2, GABAA2 receptors (α2, β3, γ2 receptor subunits transfected into Sf9 cells) (Homo sapiens, UniProt P18507+P47869); assay: GABAA2 Binding Method ([3H]-Flunitrazepam displacement); conditions: [3H]-Flunitrazepam ~2 nM, α2β3γ2 Sf9 membranes, 1 hr at 4° C.
T2 construct: host or cells: Sf9 cells (membranes)
T2 sequence (P47869 29-451): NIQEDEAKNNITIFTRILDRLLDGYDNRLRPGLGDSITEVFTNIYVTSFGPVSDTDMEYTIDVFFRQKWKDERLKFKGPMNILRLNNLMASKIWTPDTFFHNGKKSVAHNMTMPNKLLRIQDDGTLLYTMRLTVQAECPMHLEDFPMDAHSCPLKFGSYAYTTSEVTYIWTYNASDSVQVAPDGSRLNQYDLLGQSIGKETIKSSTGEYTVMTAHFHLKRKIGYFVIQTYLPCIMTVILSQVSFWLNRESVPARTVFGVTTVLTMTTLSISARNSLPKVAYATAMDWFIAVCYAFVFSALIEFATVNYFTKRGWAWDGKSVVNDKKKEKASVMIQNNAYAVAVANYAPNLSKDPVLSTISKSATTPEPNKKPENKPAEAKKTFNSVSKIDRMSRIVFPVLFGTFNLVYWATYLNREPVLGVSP
T2 sequence (P28472 26-473 partner): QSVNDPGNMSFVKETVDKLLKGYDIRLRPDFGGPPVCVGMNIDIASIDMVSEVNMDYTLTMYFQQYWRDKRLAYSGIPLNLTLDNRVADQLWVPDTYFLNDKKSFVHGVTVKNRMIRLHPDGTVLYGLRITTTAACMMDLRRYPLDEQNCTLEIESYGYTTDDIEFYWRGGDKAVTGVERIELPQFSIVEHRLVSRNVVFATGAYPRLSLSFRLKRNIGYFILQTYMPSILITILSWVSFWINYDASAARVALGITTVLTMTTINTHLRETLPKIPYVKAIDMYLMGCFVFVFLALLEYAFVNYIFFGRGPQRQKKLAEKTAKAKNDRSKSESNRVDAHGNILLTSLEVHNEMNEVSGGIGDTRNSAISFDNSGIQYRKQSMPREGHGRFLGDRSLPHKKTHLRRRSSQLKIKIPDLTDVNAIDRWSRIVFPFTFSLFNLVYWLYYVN
T2 sequence (P18507 40-475): as the sequence (P18507 40-475) above
Method in brief: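 Membranes from Sf9 cells expressing α2β3γ2 GABAA receptors incubated with ~2 nM (final) [3H]-flunitrazepam and test compound 1 h at 4 °C, then filtered on GF/B plates with cold-buffer washes. Flumazenil-defined controls; percent of control, IC50 and Ki calculated.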

Row | SMILES | Relative Potentiation for GABAA1 (GABAA receptor α1β2γ2) | Ki [1]
1 | CCCN1Cc2nc3c(-c4cnc(OC)nc4OC)c(F)ccc3c(N)c2C1=O [9-amino-5-(2,4-dimethoxypyrimidin-5-yl)-6-fluoro-2-propyl-2,3-dihydro-1H-pyrrolo[3,4-b]quinolin-1-one] | 0.22 | 8.89 nM
2 | COc1ccc(CN2Cc3nc4c(-c5cc(F)c(OC)cc5F)cccc4c(N)c3C2=O)cc1 [9-amino-5-(2,5-difluoro-4-methoxyphenyl)-2-(4-methoxybenzyl)-2,3-dihydro-1H-pyrrolo[3,4-b]quinolin-1-one] | 0.29 | 48.4 nM
3 | COc1cccc(CN2Cc3nc4c(-c5cc(OC)ccc5OC)cccc4c(N)c3C2=O)c1 [9-amino-5-(2,5-dimethoxyphenyl)-2-(3-methoxybenzyl)-2,3-dihydro-1H-pyrrolo[3,4-b]quinolin-1-one] | 0.25 | 26.9 nM
4 | CCCN1Cc2nc3c(-c4ccc(F)nc4F)cccc3c(N)c2C1=O [9-amino-5-(2,6-difluoropyridin-3-yl)-2-propyl-2,3-dihydro-1H-pyrrolo[3,4-b]quinolin-1-one] | 0.21 | 75.3 nM
5 | CCCN1Cc2nc3c(-c4cc(F)cnc4Cl)cccc3c(N)c2C1=O [9-amino-5-(2-chloro-5-fluoropyridin-3-yl)-2-propyl-2,3-dihydro-1H-pyrrolo[3,4-b]quinolin-1-one] | 0.38 | 16.3 nM
6 | CCCN1Cc2nc3c(-c4cc(OC)cnc4Cl)cccc3c(N)c2C1=O [9-amino-5-(2-chloro-5-methoxypyridin-3-yl)-2-propyl-2,3-dihydro-1H-pyrrolo[3,4-b]quinolin-1-one] | 0.45 | 9.72 nM
7 | Cc1ccc(-c2cccc3c(N)c4c(nc23)CN(C2CC2)C4=O)c(Cl)n1 [9-amino-5-(2-chloro-6-methylpyridin-3-yl)-2-cyclopropyl-2,3-dihydro-1H-pyrrolo[3,4-b]quinolin-1-one] | 0.4 | 7.87 nM
8 | CCCN1Cc2nc3c(-c4ccccc4Cl)cccc3c(N)c2C1=O [9-amino-5-(2-chlorophenyl)-2-propyl-2,3-dihydro-1H-pyrrolo[3,4-b]quinolin-1-one] | 0.35 | 4.82 nM
9 | CCCN1Cc2nc3c(-c4cccnc4OCC)cccc3c(N)c2C1=O [9-amino-5-(2-ethoxypyridin-3-yl)-2-propyl-2,3-dihydro-1H-pyrrolo[3,4-b]quinolin-1-one] | 0.56 | 15 nM
10 | CCCN1Cc2nc3c(-c4cc(C(F)(F)F)ccc4F)cccc3c(N)c2C1=O [9-amino-5-(2-fluoro-5-(trifluoromethyl)phenyl)-2-propyl-2,3-dihydro-1H-pyrrolo[3,4-b]quinolin-1-one] | 0.55 | 24 nM
11 | CCCN1Cc2nc3c(-c4cc(C)ccc4F)cccc3c(N)c2C1=O [9-amino-5-(2-fluoro-5-methylphenyl)-2-propyl-2,3-dihydro-1H-pyrrolo[3,4-b]quinolin-1-one] | 0.27 | 6.77 nM
12 | COc1ccc([C@@H](C)N2Cc3nc4c(-c5c(F)cccc5OC)cccc4c(N)c3C2=O)cc1 [9-amino-5-(2-fluoro-6-methoxyphenyl)-2-((R)-1-(4-methoxyphenyl)ethyl)-2,3-dihydro-1H-pyrrolo[3,4-b]quinolin-1-one] | −0.008 | 20.9 nM
13 | CCCN1Cc2nc3c(-c4ccc(C)nc4OC)cccc3c(N)c2C1=O [9-amino-5-(2-methoxy-6-methylpyridin-3-yl)-2-propyl-2,3-dihydro-1H-pyrrolo[3,4-b]quinolin-1-one] | 1.1 | 24 nM
14 | COc1ccc(CN2Cc3nc4c(-c5cc(F)cc(F)c5)cccc4c(N)c3C2=O)cc1OC [9-amino-5-(3,5-difluorophenyl)-2-(3,4-dimethoxybenzyl)-2,3-dihydro-1H-pyrrolo[3,4-b]quinolin-1-one] | 0.24 | 15.3 nM
15 | CCCN1Cc2nc3c(-c4cc(OC)cc(OC)c4)cccc3c(N)c2C1=O [9-amino-5-(3,5-dimethoxyphenyl)-2-propyl-2,3-dihydro-1H-pyrrolo[3,4-b]quinolin-1-one] | 0.6 | 46.7 nM
16 | COc1ccc(CN2Cc3nc4c(-c5ccc(F)cc5OC)cccc4c(N)c3C2=O)cc1 [9-amino-5-(4-fluoro-2-methoxyphenyl)-2-(4-methoxybenzyl)-2,3-dihydro-1H-pyrrolo[3,4-b]quinolin-1-one] | 0.22 | 31.2 nM

Further compounds by falling Ki [1], results first:

Row | Relative Potentiation for GABAA1 (GABAA receptor α1β2γ2) | Ki [1] | SMILES
17 | 0.27 | 37.4 nM | CCCN1Cc2nc3c(-c4cccc(N(C)C)c4)cccc3c(N)c2C1=O [9-amino-5-(3-(dimethylamino)phenyl)-2-propyl-2,3-dihydro-1H-pyrrolo[3,4-b]quinolin-1-one]
18 | 0.34 | 14.2 nM | CCN1Cc2nc3c(-c4cc(C)cc(C)c4)cccc3c(N)c2C1=O [9-amino-5-(3,5-dimethylphenyl)-2-ethyl-2,3-dihydro-1H-pyrrolo[3,4-b]quinolin-1-one]
19 | 0.12 | 12.8 nM | CCCN1Cc2nc3c(-c4ccc(OC)cc4F)cccc3c(N)c2C1=O [9-amino-5-(2-fluoro-4-methoxyphenyl)-2-propyl-2,3-dihydro-1H-pyrrolo[3,4-b]quinolin-1-one]
20 | 1.1 | 12.3 nM | CCCN1Cc2nc3c(-c4ccc(OC)c(OC)c4)cccc3c(N)c2C1=O [9-amino-5-(3,4-dimethoxyphenyl)-2-propyl-2,3-dihydro-1H-pyrrolo[3,4-b]quinolin-1-one]
21 | 0.16 | 12.2 nM | CCCN1Cc2nc3c(-c4c(F)cc(OC)cc4F)cccc3c(N)c2C1=O [9-amino-5-(2,6-difluoro-4-methoxyphenyl)-2-propyl-2,3-dihydro-1H-pyrrolo[3,4-b]quinolin-1-one]
22 | 0.2 | 11.5 nM | CCCN1Cc2nc3c(-c4cccc(OC)c4F)cccc3c(N)c2C1=O [9-amino-5-(2-fluoro-3-methoxyphenyl)-2-propyl-2,3-dihydro-1H-pyrrolo[3,4-b]quinolin-1-one]
23 | 0.25 | 10.4 nM | CCCN1Cc2nc3c(-c4ccc(OC)cc4C(F)(F)F)cccc3c(N)c2C1=O [9-amino-5-(4-methoxy-2-(trifluoromethyl)phenyl)-2-propyl-2,3-dihydro-1H-pyrrolo[3,4-b]quinolin-1-one]
24 | 0.6 | 8.08 nM | CCCN1Cc2nc3c(-c4cc(F)ncc4OC)cccc3c(N)c2C1=O [9-amino-5-(2-fluoro-5-methoxypyridin-4-yl)-2-propyl-2,3-dihydro-1H-pyrrolo[3,4-b]quinolin-1-one]
25 | 0.36 | 8.03 nM | COc1ccc(CN2Cc3nc4c(-c5cccc(OC)c5F)cccc4c(N)c3C2=O)cc1 [9-amino-5-(2-fluoro-3-methoxyphenyl)-2-(4-methoxybenzyl)-2,3-dihydro-1H-pyrrolo[3,4-b]quinolin-1-one]
26 | 0.33 | 7.55 nM | CCCN1Cc2nc3c(-c4cc(C)cnc4F)cccc3c(N)c2C1=O [9-amino-5-(2-fluoro-5-methylpyridin-3-yl)-2-propyl-2,3-dihydro-1H-pyrrolo[3,4-b]quinolin-1-one]
